The NIST ThermoML archive (doi:10.1007/s10765-006-0092-8)
± gives the expanded uncertainty stated by the source.

Settings: gamma-ray densimeter

Fc1c(F)c(F)c(F)c(F)c1F [hexafluorobenzene]
mass density [kg/m3]
Settings	Gas	Liquid
298.79 K	–	1605.4 ± 3
323.83 K	2.3	1548.5 ± 3
343.88 K	–	1499.4 ± 3
363.85 K	–	1450.5 ± 3
383.91 K	15.5 ± 3	1397.9 ± 3
403.92 K	25.8 ± 3	1342.1 ± 3
423.93 K	40.6 ± 3	1281.2 ± 3
443.9 K	62.7 ± 3	1213.9 ± 3
463.89 K	95.3 ± 3	1135.3 ± 3
483.9 K	146.7 ± 3	1037.1 ± 3.1
493.93 K	186 ± 3	974 ± 3.1
503.88 K	243.5 ± 3.1	892.3 ± 3.1
508.9 K	287 ± 3.2	835.8 ± 3.3
513.91 K	363.5 ± 3.6	744.6 ± 3.7
513.92 K	363.5 ± 3.6	746.3 ± 3.7
515.98 K	433.7 ± 10	670.3 ± 11
516.28 K	455.8 ± 10	644.8 ± 11
516.57 K	491.5 ± 10	610.1 ± 11
